Patent US20110151089A1, “COMPOSITION CONTAINING MAGNESIUM GLUTAMATE WHICH CAN ENHANCE THE SALTINESS OF FOODS AND DRINKS” (priority 2008, published 2011)

Test: Sensory evaluation test of miso sample solutions without broth, experts' panel of six adult persons (Example 2)
Parameters: species or system human
Conditions: converted sodium chloride concentration about 0.625%, scale with 7 gradations, from 0 to 7
From the text: A scale with 7 gradations, from 0 to 7, was used to evaluate the “strength of saltiness” and “overall strength of miso soup flavor”.

In the case of `N[C@@H](CCC(=O)[O-])C(=O)[O-].[Mg+2]` [MDG, magnesium glutamate], the Strength of saltiness is reported as “improved”.
